# pKd: −log10 of the molar value.
# Tests used:
# [1] = molecular target: T1, ctPrp2-ctSpp2_211–254 complex (ctPrp2_270–921 with ctSpp2G-patch) (Thermochaetoides thermophila, UniProt G0SEG4); test: ITC; type: binding
# T1 sequence (G0SEG4 270-921): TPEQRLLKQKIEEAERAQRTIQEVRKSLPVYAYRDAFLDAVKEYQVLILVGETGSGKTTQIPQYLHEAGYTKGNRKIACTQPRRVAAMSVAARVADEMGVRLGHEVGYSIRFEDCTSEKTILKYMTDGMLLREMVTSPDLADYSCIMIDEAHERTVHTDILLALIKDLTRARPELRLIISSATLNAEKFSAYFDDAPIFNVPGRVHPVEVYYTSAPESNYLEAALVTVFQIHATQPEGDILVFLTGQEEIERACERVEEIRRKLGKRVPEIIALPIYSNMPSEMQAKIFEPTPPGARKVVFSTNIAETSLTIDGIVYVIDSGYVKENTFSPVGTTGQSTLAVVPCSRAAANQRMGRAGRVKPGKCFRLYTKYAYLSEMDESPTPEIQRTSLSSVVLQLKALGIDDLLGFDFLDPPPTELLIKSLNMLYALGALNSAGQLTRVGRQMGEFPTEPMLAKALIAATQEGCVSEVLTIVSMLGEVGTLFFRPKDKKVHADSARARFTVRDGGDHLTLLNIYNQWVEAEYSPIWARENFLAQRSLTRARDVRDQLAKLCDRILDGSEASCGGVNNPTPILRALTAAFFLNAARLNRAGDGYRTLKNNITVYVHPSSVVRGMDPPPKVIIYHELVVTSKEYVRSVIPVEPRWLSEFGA
# T1 sequence (G0SFN3 211-254 partner): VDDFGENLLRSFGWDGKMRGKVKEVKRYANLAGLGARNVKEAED
# [2] = molecular target: ctPrp2 as used for ITC and for in-solution cross-linking (Chaetomium thermophilum); test: ITC
compound,measurement,setting,value
Nc1ncnc2c1ncn2[C@@H]1O[C@H](COP(=O)(O)OP(=O)(O)O)[C@@H](O)[C@H]1O [ADP],pKd,[1],~6.76
"ctSpp2_(211–254), G-patch domain of Spp2 from Chaetomium thermophilum (domain or fragment)",pKd,[2],6.14
